# Columns and labels:
# Experiment in all cases: HPLC-UV time course, global Michaelis-Menten fit (COPASI)
# Format in all cases: biochemical
# [1] = molecular target: T1, I3_Rc (Rhodobacter capsulatus, UniProt P17054); conditions: phytoene liposomes (soy lecithin), FAD, pH 8.0, 30 °C, Kd = kr/kf fitted with bounded rate constants
# T1 construct: gene crtI; full length, codon optimized, C-terminal His6, E. coli BL21(DE3), TALON purified with FAD; species only as initials
# [2] = molecular target: T2, I4_Bt (CrtI from Blakeslea trispora) (Blakeslea trispora, UniProt Q67GI0); conditions: phytoene liposomes (soy lecithin), FAD, pH 8.0, 30 °C; Kd = kr/kf fitted with bounded rate constants
# T2 construct: gene carB; full length, codon optimized, C-terminal His6, E. coli BL21(DE3), TALON purified with FAD
# T2 sequence (Q67GI0 1-582): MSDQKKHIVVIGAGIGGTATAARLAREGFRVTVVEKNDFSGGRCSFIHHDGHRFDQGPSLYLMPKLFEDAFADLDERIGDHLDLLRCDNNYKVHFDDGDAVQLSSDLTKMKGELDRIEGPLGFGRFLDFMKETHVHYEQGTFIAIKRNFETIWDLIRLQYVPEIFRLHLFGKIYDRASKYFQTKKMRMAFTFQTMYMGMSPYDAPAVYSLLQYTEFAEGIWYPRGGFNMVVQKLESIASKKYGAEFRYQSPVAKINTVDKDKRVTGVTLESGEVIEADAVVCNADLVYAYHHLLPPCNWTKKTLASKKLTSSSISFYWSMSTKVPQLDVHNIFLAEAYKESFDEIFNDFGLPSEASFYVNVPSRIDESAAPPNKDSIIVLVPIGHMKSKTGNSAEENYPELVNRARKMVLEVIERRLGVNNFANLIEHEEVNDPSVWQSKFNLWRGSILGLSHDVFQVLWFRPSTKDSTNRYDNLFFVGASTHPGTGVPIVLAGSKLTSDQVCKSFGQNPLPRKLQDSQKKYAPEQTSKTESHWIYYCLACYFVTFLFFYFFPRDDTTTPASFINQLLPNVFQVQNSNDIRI
# [3] = molecular target: T3, I4_Ma (Mycolicibacterium aurum, UniProt Q9K566); conditions: phytoene liposomes (soy lecithin), FAD, pH 8.0, 30 °C, Kd = kr/kf fitted with bounded rate constants
# T3 construct: gene crtI; full length, codon optimized, C-terminal His6, E. coli BL21(DE3), TALON purified with FAD; species only as initials (Ma), read as Mycobacterium aurum
# T3 sequence (Q9K566 entry or part of it): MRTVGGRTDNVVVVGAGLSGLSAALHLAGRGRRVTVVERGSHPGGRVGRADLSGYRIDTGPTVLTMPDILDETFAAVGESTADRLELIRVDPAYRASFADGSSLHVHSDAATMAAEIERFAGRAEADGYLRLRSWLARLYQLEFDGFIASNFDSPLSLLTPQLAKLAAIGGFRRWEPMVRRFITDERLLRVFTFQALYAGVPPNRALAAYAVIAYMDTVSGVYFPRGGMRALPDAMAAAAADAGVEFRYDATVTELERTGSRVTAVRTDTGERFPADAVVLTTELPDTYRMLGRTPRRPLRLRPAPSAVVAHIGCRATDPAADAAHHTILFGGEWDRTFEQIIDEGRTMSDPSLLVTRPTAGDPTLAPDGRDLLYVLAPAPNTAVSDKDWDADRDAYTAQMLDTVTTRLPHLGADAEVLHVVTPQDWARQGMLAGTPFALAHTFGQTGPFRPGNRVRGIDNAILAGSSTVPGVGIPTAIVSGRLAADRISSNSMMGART
# T1 sequence (P17054 whole entry): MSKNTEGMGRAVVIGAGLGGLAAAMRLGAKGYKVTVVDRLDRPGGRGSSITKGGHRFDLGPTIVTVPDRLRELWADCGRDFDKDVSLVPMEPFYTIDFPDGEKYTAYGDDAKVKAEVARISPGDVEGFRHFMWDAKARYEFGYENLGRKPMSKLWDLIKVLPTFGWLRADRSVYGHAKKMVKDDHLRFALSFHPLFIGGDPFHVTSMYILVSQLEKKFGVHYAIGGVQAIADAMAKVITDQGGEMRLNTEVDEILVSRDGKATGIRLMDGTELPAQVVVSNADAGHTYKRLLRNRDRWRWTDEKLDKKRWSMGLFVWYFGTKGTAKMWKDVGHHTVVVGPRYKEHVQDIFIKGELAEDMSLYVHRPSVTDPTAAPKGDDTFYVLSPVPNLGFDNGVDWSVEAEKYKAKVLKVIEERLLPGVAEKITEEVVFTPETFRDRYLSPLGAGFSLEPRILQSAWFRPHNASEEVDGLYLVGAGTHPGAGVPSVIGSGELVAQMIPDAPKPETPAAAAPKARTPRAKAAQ
Kd ([1]; lycopene production poorly fitted for I3_Rc) [nM],Kd [2] [nM],Kd ([3]; intermediate formed in situ from phytoene) [nM],Kd [1] [nM],Kd [3] [nM],SMILES
33000,1600,2100,–,–,CC(C)=CCC/C(C)=C/C=C/C(C)=C/C=C/C(C)=C/C=C/C=C(C)/C=C/C=C(\C)CC/C=C(\C)CCC=C(C)C [neurosporene]
–,7900,–,1100,13100,CC(C)=CCC/C(C)=C/CC/C(C)=C/CC/C(C)=C/C=C\C=C(/C)CC/C=C(\C)CC/C=C(\C)CCC=C(C)C [phytoene]
–,4700,–,1000,1000,CC(C)=CCC/C(C)=C/CC/C(C)=C/C=C/C(C)=C/C=C/C=C(\C)CC/C=C(\C)CC/C=C(\C)CCC=C(C)C [phytofluene]
–,2500,–,23000,2300,CC(C)=CCC/C(C)=C/CC/C(C)=C/C=C/C(C)=C/C=C/C=C(C)/C=C/C=C(\C)CC/C=C(\C)CCC=C(C)C [ζ-carotene]

# Reference: article PMC7713294, “Multiplicity of carotene patterns derives from competition between phytoene desaturase diversification and biological environments” (Scientific Reports, 2020)
